Data published in patent US11505573B2, “Peptide macrocycles against Acinetobacter baumannii” (Hoffmann-La Roche Inc., priority 2018, dated 2022).

system: A. baumannii ATCC 17978; experiment: Antimicrobial susceptibility testing: 50% growth inhibitory concentration (IC50) determination in Iso-Sensitest broth; format: cell-based; details: Acinetobacter baumannii; A. baumannii strain ATCC17978; Iso-Sensitest medium; OD 600 nm over 16 h; 35±2° C.; read-out: IC50 ATCC17978 (50% growth inhibition concentration)
Protocol: Antimicrobial Susceptibility Testing: 50% Growth Inhibitory Concentration (IC50) Determination The in vitro antimicrobial activity of the compounds was alternatively determined according to the following procedure: The assay used a 10-points Iso-Sensitest broth medium to measure quantitatively the in vitro activity of the compounds against A. baumannii ATCC 17978. Stock compounds in DMSO were serially twofold diluted (e.g. range from 10 to 0.02 μM final concentration) in 384 wells microtiter plates and inoculated with 49 μl the bacterial suspension in Iso-Sensitest medium to have a final cell concentration of ˜5×10^(5) CFU/ml in a final volume/well of […] Microtiter plates were incubated at 35±2° C. Bacterial cell growth was determined by the measurement of optical density at λ=600 nm each 20 minutes over a time course of 16 h. Growth inhibition was calculated during the logarithmic growth of the bacterial cells by determination of the concentration inhibiting 50% (IC50) and 90% (IC90) of the growth. Table 1 provides the 50% growth inhibitory concentrations (IC50) in micromoles per liter of the compounds of present invention obtained against the A. baumannnii strain ATCC17978.

IC50 [nM]	SMILES
20	CN1C(=O)[C@H](CCCCN)NC(=O)[C@H](CCCN)NCc2cccnc2Sc2c(Cl)ccc(-c3ccc(S(=O)(=O)O)cc3)c2CNC(=O)[C@@H]1Cc1c[nH]c2ccccc12 [Example 1.00, 4-[(11S,14S,17S)-14-(4-Aminobutyl)-11-(3-aminopropyl)-25-chloro-17-(1H-indol-3-ylmethyl)-16-methyl-12,15,18-trioxo-2-thia-4,10,13,16,19-pentazatricyclo[19.4.0.03,8]pentacosa-1(25),3,5,7,21,23-hexaen-22-yl]benzenesulfonic acid]
20	CN1C(=O)[C@H](CCCCN)NC(=O)[C@H](CCCN)NCc2cccnc2Sc2c(Cl)ccc(-c3ccc4nn[nH]c4c3)c2CNC(=O)[C@@H]1Cc1c[nH]c2ccccc12 [Example 1.01, (11S,14S,17S)-14-(4-aminobutyl)-11-(3-aminopropyl)-22-(3H-benzotriazol-5-yl)-25-chloro-17-(1H-indol-3-ylmethyl)-16-methyl-2-thia-4,10,13,16,19-pentazatricyclo[19.4.0.03,8]pentacosa-1(25),3,5,7,21,23-hexaene-12,15,18-trione]
100	CN1C(=O)[C@H](CCCCN)NC(=O)[C@H](CCCN)NCc2cccnc2Sc2c(Cl)ccc(-c3ccc(-c4nnn[nH]4)cc3)c2CNC(=O)[C@@H]1Cc1c[nH]c2ccccc12 [Example 1.02, (11S,14S,17S)-14-(4-aminobutyl)-11-(3-aminopropyl)-25-chloro-17-(1H-indol-3-ylmethyl)-16-methyl-22-[4-(1H-tetrazol-5-yl)phenyl]-2-thia-4,10,13,16,19-pentazatricyclo[19.4.0.03,8]pentacosa-1(25),3,5,7,21,23-hexaene-12,15,18-trione]
360	CN1C(=O)[C@H](CCCCN)NC(=O)[C@H](CCCN)NCc2cccnc2Sc2c(Cl)ccc(-c3cccc(-c4nnn[nH]4)c3)c2CNC(=O)[C@@H]1Cc1c[nH]c2ccccc12 [Example 1.03, (11S,14S,17S)-14-(4-aminobutyl)-11-(3-aminopropyl)-25-chloro-17-(1H-indol-3-ylmethyl)-16-methyl-22-[3-(1H-tetrazol-5-yl)phenyl]-2-thia-4,10,13,16,19-pentazatricyclo[19.4.0.03,8]pentacosa-1(25),3,5,7,21,23-hexaene-12,15,18-trione]
20	CC(=O)NS(=O)(=O)c1ccc(-c2ccc(Cl)c3c2CNC(=O)[C@H](Cc2c[nH]c4ccccc24)N(C)C(=O)[C@H](CCCCN)NC(=O)[C@H](CCCN)NCc2cccnc2S3)cc1 [Example 1.04, N-[4-[(11S,14S,17S)-14-(4-aminobutyl)-11-(3-aminopropyl)-25-chloro-17-(1H-indol-3-ylmethyl)-16-methyl-12,15,18-trioxo-2-thia-4,10,13,16,19-pentazatricyclo[19.4.0.03,8]pentacosa-1(21),3,5,7,22,24-hexaen-22-yl]phenyl]sulfonylacetamide]
20	CN1C(=O)[C@H](CCCCN)NC(=O)[C@H](CCCN)NCc2cccnc2Sc2c(Cl)ccc(-c3cnc(=O)[nH]c3)c2CNC(=O)[C@@H]1Cc1c[nH]c2ccccc12 [Example 1.05, (11S,14S,17S)-14-(4-aminobutyl)-11-(3-aminopropyl)-25-chloro-17-(1H-indol-3-ylmethyl)-16-methyl-22-(2-oxo-1H-pyrimidin-5-yl)-2-thia-4,10,13,16,19-pentazatricyclo[19.4.0.03,8]pentacosa-1(25),3,5,7,21,23-hexaene-12,15,18-trione]
80	CN1C(=O)[C@H](CCCCN)NC(=O)[C@H](CCCN)NCc2cccnc2Sc2c(Cl)ccc(-c3ccn(Cc4nnn[nH]4)c(=O)c3)c2CNC(=O)[C@@H]1Cc1c[nH]c2ccccc12 [Example 2.00, (11S,14S,17S)-14-(4-Aminobutyl)-11-(3-aminopropyl)-25-chloro-17-(1H-indol-3-ylmethyl)-16-methyl-22-[2-oxo-1-(1H-tetrazol-5-ylmethyl)-4-pyridyl]-2-thia-4,10,13,16,19-pentazatricyclo[19.4.0.03,8]pentacosa-1(25), 3(8),4,6,21,23-hexaene-12,15,18-trione]
80	CN1C(=O)[C@H](CCCCN)NC(=O)[C@H](CCCN)NCc2cccnc2Sc2c(Cl)ccc(-c3ccc(-c4nsc(=O)[nH]4)cc3)c2CNC(=O)[C@@H]1Cc1c[nH]c2ccccc12 [Example 3.00, (11S,14S,17S)-14-(4-Aminobutyl)-11-(3-aminopropyl)-25-chloro-17-(1H-indol-3-ylmethyl)-16-methyl-22-[4-(5-oxo-4H-1,2,4-thiadiazol-3-yl)phenyl]-2-thia-4,10,13,16,19-pentazatricyclo[19.4.0.03,8]pentacosa-1(25), 3(8),4,6,21,23-hexaene-12,15,18-trione]
20	CN1C(=O)[C@H](CCCCN)NC(=O)[C@H](CCCN)NCc2cccnc2Sc2c(Cl)ccc(-c3ccc(-c4noc(=O)[nH]4)cc3)c2CNC(=O)[C@@H]1Cc1c[nH]c2ccccc12 [Example 4.00, (11S,14S,17S)-14-(4-Aminobutyl)-11-(3-aminopropyl)-25-chloro-17-(1H-indol-3-ylmethyl)-16-methyl-22-[4-(5-oxo-4H-1,2,4-oxadiazol-3-yl)phenyl]-2-thia-4,10,13,16,19-pentazatricyclo[19.4.0.03,8]pentacosa-1(25), 3(8),4,6,21,23-hexaene-12,15,18-trione]
20	CN1C(=O)[C@H](CCCCN)NC(=O)[C@H](CCCN)NCc2cccnc2Sc2cccc(-c3ccc(-c4nnn[nH]4)cc3)c2CNC(=O)[C@@H]1Cc1c[nH]c2ccccc12 [Example 5.00, (11S,14S,17S)-14-(4-Aminobutyl)-1-(3-aminopropyl)-17-(1H-indol-3-ylmethyl)-16-methyl-22-[4-(1H-tetrazol-5-yl)phenyl]-2-thia-4,10,13,16,19-pentazatricyclo[19.4.0.03,8]pentacosa-1(25), 3(8),4,6,21,23-hexaene-12,15,18-trione]
20	CN1C(=O)[C@H](CCCCN)NC(=O)[C@H](CCCN)NCc2nccnc2Sc2c(Cl)ccc(-c3ccc(S(=O)(=O)O)cc3)c2CNC(=O)[C@@H]1Cc1c[nH]c2ccccc12 [Example 6.00, 4-[(11S,14S,17S)-14-(4-Aminobutyl)-1-(3-aminopropyl)-25-chloro-17-(1H-indol-3-ylmethyl)-16-methyl-12,15,18-trioxo-2-thia-4,7,10,13,16,19-hexazatricyclo[19.4.0.03,8]pentacosa-1(25), 3(8),4,6,21,23-hexaen-22-yl]benzenesulfonic acid]
20	CN1C(=O)[C@H](CCCCN)NC(=O)[C@H](CCCN)NCc2cccnc2Sc2c(F)ccc(-c3ccc(S(=O)(=O)O)cc3)c2CNC(=O)[C@@H]1Cc1c[nH]c2ccccc12 [Example 7.00, 4-[(11S,14S,17S)-14-(4-Aminobutyl)-11-(3-aminopropyl)-25-fluoro-17-(1H-indol-3-ylmethyl)-16-methyl-12,15,18-trioxo-2-thia-4,10,13,16,19-pentazatricyclo[19.4.0.03,8]pentacosa-1(25), 3(8),4,6,21,23-hexaen-22-yl]benzenesulfonic acid]
20	CN1C(=O)[C@H](CCCCN)NC(=O)[C@H](CCCN)NCc2cccnc2Sc2c(F)ccc(-c3ccc(-c4nnn[nH]4)cc3)c2CNC(=O)[C@@H]1Cc1c[nH]c2ccccc12 [Example 7.01, (11S,14S,17S)-14-(4-aminobutyl)-11-(3-aminopropyl)-25-fluoro-17-(1H-indol-3-ylmethyl)-16-methyl-22-[4-(1H-tetrazol-5-yl)phenyl]-2-thia-4,10,13,16,19-pentazatricyclo[19.4.0.03,8]pentacosa-1(25),3(8),4,6,21,23-hexaene-12,15,18-trione]
30	CC(=O)NS(=O)(=O)c1ccc(-c2ccc(F)c3c2CNC(=O)[C@H](Cc2c[nH]c4ccccc24)N(C)C(=O)[C@H](CCCCN)NC(=O)[C@H](CCCN)NCc2cccnc2S3)cc1 [Example 7.02, N-[4-[(11S,14S,17S)-14-(4-aminobutyl)-11-(3-aminopropyl)-25-fluoro-17-(1H-indol-3-ylmethyl)-16-methyl-12,15,18-trioxo-2-thia-4,10,13,16,19-pentazatricyclo[19.4.0.03,8]pentacosa-1(25),3(8),4,6,21,23-hexaen-22-yl]phenyl]sulfonylacetamide]
40	CN1C(=O)[C@H](CCCCN)NC(=O)[C@H](CCCN)NCc2cccnc2Sc2c(F)ccc(-c3ccc(C(=O)NS(C)(=O)=O)cc3)c2CNC(=O)[C@@H]1Cc1c[nH]c2ccccc12 [Example 7.03, 4-[(11S,14S,17S)-14-(4-aminobutyl)-11-(3-aminopropyl)-25-fluoro-17-(1H-indol-3-ylmethyl)-16-methyl-12,15,18-trioxo-2-thia-4,10,13,16,19-pentazatricyclo[19.4.0.03,8]pentacosa-1(25),3(8),4,6,21,23-hexaen-22-yl]-N-methylsulfonyl-benzamide]
20	CN1C(=O)[C@H](CCCN)NC(=O)[C@H](CCCN)NCc2cccnc2Sc2c(Cl)ccc(-c3ccc(S(=O)(=O)O)cc3)c2CNC(=O)[C@@H]1Cc1c[nH]c2ccccc12 [Example 8.00, 4-[(11S,14S,17S)-11,14-Bis(3-aminopropyl)-25-chloro-17-(1H-indol-3-ylmethyl)-16-methyl-12,15,18-trioxo-2-thia-4,10,13,16,19-pentazatricyclo[19.4.0.03,8]pentacosa-1(21),3,5,7,22,24-hexaen-22-yl]benzenesulfonic acid]
